Assay results: ChEMBL document CHEMBL1134759, “Synthesis of a novel C-10 spiro-epoxide of paclitaxel” (Bioorg Med Chem Lett, 2001)

The molecules below were run on HCT-116 (assay: In vitro inhibitory activity against colon carcinoma HCT 116 cell line was determined.). Details: Homo sapiens.
Type: functional, cell-based

IC50	SMILES
2.9 nM	CC(=O)O[C@H]1C(=O)[C@@]2(C)C([C@H](OC(=O)c3ccccc3)C3(O)C[C@H](OC(=O)[C@H](O)[C@@H](NC(=O)c4ccccc4)c4ccccc4)C(C)=C1C3(C)C)[C@]1(OC(C)=O)COC1C[C@@H]2O (some centres not stated)
1.5 nM	COCO[C@H]1CC2OC[C@@]2(OC(C)=O)C2[C@H](OC(=O)c3ccccc3)C3(O)C[C@H](OC(=O)[C@H](O)[C@@H](NC(=O)c4ccccc4)c4ccccc4)C(C)=C(C3(C)C)[C@@]3(CO3)C(=O)[C@@]21C (some centres not stated)

SMILES	IC50
CC(=O)O[C@@]12COC1C[C@H](O)[C@@]1(C)C(=O)[C@@]3(CO3)C3=C(C)[C@@H](OC(=O)[C@H](O)[C@@H](NC(=O)c4ccccc4)c4ccccc4)CC(O)([C@@H](OC(=O)c4ccccc4)C21)C3(C)C (some centres not stated)	2 nM

Each molecule was assayed against Tubulin alpha chain (Sus scrofa) (UniProt P02550) (assay: Potency to that of potency of paclitaxel in Tubulin polymerization assay). Details: not given.
Chain of Tubulin alpha chain (Sus scrofa) (P02550 whole entry, looked up): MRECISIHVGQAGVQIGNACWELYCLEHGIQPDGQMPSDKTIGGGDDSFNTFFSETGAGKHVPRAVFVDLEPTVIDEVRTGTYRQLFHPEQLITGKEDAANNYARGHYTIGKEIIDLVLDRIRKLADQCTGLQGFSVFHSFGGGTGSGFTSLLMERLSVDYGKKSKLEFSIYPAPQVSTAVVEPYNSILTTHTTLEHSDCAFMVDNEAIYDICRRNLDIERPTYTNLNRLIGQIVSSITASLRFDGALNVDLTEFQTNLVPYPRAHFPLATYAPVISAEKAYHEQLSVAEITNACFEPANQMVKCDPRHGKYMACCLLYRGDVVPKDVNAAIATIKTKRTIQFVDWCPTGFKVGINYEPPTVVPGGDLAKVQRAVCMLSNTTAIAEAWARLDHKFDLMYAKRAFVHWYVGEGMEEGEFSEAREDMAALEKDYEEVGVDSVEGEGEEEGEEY
Type: functional

Ratio	SMILES
1	CC(=O)O[C@H]1C(=O)[C@@]2(C)C([C@H](OC(=O)c3ccccc3)C3(O)C[C@H](OC(=O)[C@H](O)[C@@H](NC(=O)c4ccccc4)c4ccccc4)C(C)=C1C3(C)C)[C@]1(OC(C)=O)COC1C[C@@H]2O (some centres not stated)
0.7	COCO[C@H]1CC2OC[C@@]2(OC(C)=O)C2[C@H](OC(=O)c3ccccc3)C3(O)C[C@H](OC(=O)[C@H](O)[C@@H](NC(=O)c4ccccc4)c4ccccc4)C(C)=C(C3(C)C)[C@@]3(CO3)C(=O)[C@@]21C (some centres not stated)

SMILES	Ratio
CC(=O)O[C@@]12COC1C[C@H](O)[C@@]1(C)C(=O)[C@@]3(CO3)C3=C(C)[C@@H](OC(=O)[C@H](O)[C@@H](NC(=O)c4ccccc4)c4ccccc4)CC(O)([C@@H](OC(=O)c4ccccc4)C21)C3(C)C (some centres not stated)	0.5

The molecules below were run on HCT-116 (assay: In vitro inhibitory activity against Paclitaxel resistant colon carcinoma HCT VM46 cell line was determined.). Details: Homo sapiens.
Type: functional, cell-based

IC50	SMILES
> 118 nM	CC(=O)O[C@H]1C(=O)[C@@]2(C)C([C@H](OC(=O)c3ccccc3)C3(O)C[C@H](OC(=O)[C@H](O)[C@@H](NC(=O)c4ccccc4)c4ccccc4)C(C)=C1C3(C)C)[C@]1(OC(C)=O)COC1C[C@@H]2O (some centres not stated)
14 nM	COCO[C@H]1CC2OC[C@@]2(OC(C)=O)C2[C@H](OC(=O)c3ccccc3)C3(O)C[C@H](OC(=O)[C@H](O)[C@@H](NC(=O)c4ccccc4)c4ccccc4)C(C)=C(C3(C)C)[C@@]3(CO3)C(=O)[C@@]21C (some centres not stated)

SMILES	IC50
CC(=O)O[C@@]12COC1C[C@H](O)[C@@]1(C)C(=O)[C@@]3(CO3)C3=C(C)[C@@H](OC(=O)[C@H](O)[C@@H](NC(=O)c4ccccc4)c4ccccc4)CC(O)([C@@H](OC(=O)c4ccccc4)C21)C3(C)C (some centres not stated)	> 121 nM

What follows are molecules tested on A2780 (assay: In vitro inhibitory activity against Ovarian A2780 cell line was determined.). Details: Homo sapiens.
Type: functional, cell-based

IC50	SMILES
3.5 nM	CC(=O)O[C@H]1C(=O)[C@@]2(C)C([C@H](OC(=O)c3ccccc3)C3(O)C[C@H](OC(=O)[C@H](O)[C@@H](NC(=O)c4ccccc4)c4ccccc4)C(C)=C1C3(C)C)[C@]1(OC(C)=O)COC1C[C@@H]2O (some centres not stated)
1.8 nM	COCO[C@H]1CC2OC[C@@]2(OC(C)=O)C2[C@H](OC(=O)c3ccccc3)C3(O)C[C@H](OC(=O)[C@H](O)[C@@H](NC(=O)c4ccccc4)c4ccccc4)C(C)=C(C3(C)C)[C@@]3(CO3)C(=O)[C@@]21C (some centres not stated)

SMILES	IC50
CC(=O)O[C@@]12COC1C[C@H](O)[C@@]1(C)C(=O)[C@@]3(CO3)C3=C(C)[C@@H](OC(=O)[C@H](O)[C@@H](NC(=O)c4ccccc4)c4ccccc4)CC(O)([C@@H](OC(=O)c4ccccc4)C21)C3(C)C (some centres not stated)	2.5 nM
